Here are results for 37 compounds from ChEMBL document CHEMBL2029253, “Pharmacophore modeling, virtual screening and 3D-QSAR studies of 5-tetrahydroquinolinylidine aminoguanidine derivatives as sodium hydrogen exchanger inhibitors” (Bioorg Med Chem Lett, 2012).

A short description of the assay: Inhibition of sodium hydrogen exchanger-mediated platelet swelling in human. The note with it: for IC50: Homo sapiens.

For `COc1ccnc2c1/C(=N/N=C(N)N)CC(c1ccccc1Cl)C2` (configuration not stated), the IC50 by setting is: (read-out: IC50) below 50 nM; (read-out: pIC50 (converted)) 50 nM. For `N=C(N)N/N=c1\cc(-c2ccccc2)oc2ccccc12`, in that order: 6400 nM and 6400 nM. `Cc1ccnc2c1/C(=N/N=C(N)N)CC(c1cc(Cl)ccc1Cl)C2` (configuration not stated): for the setting “read-out: pIC50 (converted)”, the IC50 was 57.9 nM. With `Cc1ccnc2c1/C(=N/N=C(N)N)CC(c1ccccc1F)C2` (configuration not stated), the IC50 is, setting by setting: (read-out: IC50) 32 nM; (read-out: pIC50 (converted)) 32 nM. For the compound `Cc1coc2c1/C(=N/N=C(N)N)CC(c1ccccc1Cl)C2` (configuration not stated), the IC50 (read-out: pIC50 (converted)) was 82 nM.

With `Cc1[nH]nc2c1/C(=N/N=C(N)N)CC(c1ccccc1Cl)C2` (configuration not stated), the IC50 (read-out: pIC50 (converted)) is 55 nM. Regarding `N=C(N)N/N=C1\CC(c2ccccc2)Cc2ncccc21` (configuration not stated), the IC50 runs as follows: (read-out: IC50) 410 nM; (read-out: pIC50 (converted)) 410 nM. With `Cc1ccnc2c1/C(=N/N=C(N)N)CC(c1cc(F)ccc1F)C2` (configuration not stated), for the setting “read-out: pIC50 (converted)”, the IC50 was 39 nM. Consider `COc1ccc(F)cc1C1C/C(=N\N=C(N)N)c2c(C)ccnc2C1` (configuration not stated), for which the IC50 (read-out: pIC50 (converted)) was 32 nM. On to `Cc1ccnc2c1/C(=N/N=C(N)N)CC(c1ccccc1Cl)C2` (configuration not stated), for which the IC50 (read-out: IC50) was below 50 nM and the IC50 (read-out: pIC50 (converted)) is 40 nM. The corresponding values for `Cc1ccnc2c1/C(=N/N=C(N)N)CC(c1ccccc1)C2` (configuration not stated) are below 50 nM and 91 nM. Usually Ki stands for the equilibrium dissociation constant of an inhibitor or competing ligand from its target. Low readings indicate tighter binding, high ones weaker binding. Regarding `Cc1ccnc2c1/C(=N/N=C(N)N)CC(c1cc(F)ccc1Cl)C2` (configuration not stated), the affinity corresponds to a Ki of 19 nM. Besides, for the setting “read-out: pIC50 (converted)”, the IC50 was 19 nM. For `Cc1ncnc2c1/C(=N/N=C(N)N)CC(c1ccccc1Cl)C2` (configuration not stated), under “read-out: pIC50 (converted)”, the IC50 is 240 nM. Regarding `Cc1ccnc2c1/C(=N/N=C(N)N)CC(c1ccc(Cl)cc1Cl)C2` (configuration not stated), under “read-out: pIC50 (converted)”, the IC50 is 340 nM. As to `Cc1cc(C)c2c(n1)CC(c1ccccc1)C/C2=N\N=C(N)N` (configuration not stated), the IC50 is below 50 nM (read-out: IC50) and 180 nM (read-out: pIC50 (converted)). Regarding `Cc1ccnc2c1/C(=N/N=C(N)N)CC(c1sc(Cl)cc1Cl)C2` (configuration not stated), the IC50 (read-out: pIC50 (converted)) was 49 nM. With `Cc1ccccc1C1C/C(=N\N=C(N)N)c2c(C)ccnc2C1` (configuration not stated), the IC50 reads like this: (read-out: IC50) 57 nM; (read-out: pIC50 (converted)) 57 nM. Consider `Cc1csc2c1/C(=N/N=C(N)N)CC(c1ccccc1Cl)C2` (configuration not stated), for which the IC50 (read-out: pIC50 (converted)) was 220 nM. Turning to `Cc1ccnc2c1/C(=N/N=C(N)N)CC(c1sccc1Cl)C2` (configuration not stated), for the setting “read-out: pIC50 (converted)”, the IC50 is 19 nM. Turning to `Cc1ccnc2c1/C(=N/N=C(N)N)CC(c1cccs1)C2` (configuration not stated), under “read-out: pIC50 (converted)”, the IC50 was 47 nM. Turning to `Cc1ccc2c(n1)CC(c1ccccc1)C/C2=N\N=C(N)N` (configuration not stated), the IC50 runs as follows: (read-out: IC50) 2800 nM; (read-out: pIC50 (converted)) 2800 nM. In the case of `Cc1cnnc2c1/C(=N/N=C(N)N)CC(c1ccccc1Cl)C2` (configuration not stated), the IC50 (read-out: pIC50 (converted)) was 26 nM.

As for `Cc1ccccc1C1C/C(=N\N=C(N)N)c2c(C)c[nH]c2C1` (configuration not stated), the IC50 (read-out: pIC50 (converted)) was 34 nM. `N=C(N)N/N=C1\CC(c2ccccc2)Cc2[nH]ccc21` (configuration not stated): the IC50 (read-out: pIC50 (converted)) is 3500 nM. `Cc1ccnc2c1/C(=N/N=C(N)N)CC(c1cccc(Cl)c1)C2` (configuration not stated): the IC50 was below 50 nM (read-out: IC50) and 61 nM (read-out: pIC50 (converted)). Turning to `Cc1ccnc2c1/C(=N/N=C(N)N)CC(c1ccsc1Cl)C2` (configuration not stated), under “read-out: pIC50 (converted)”, the IC50 is 22 nM.

With `Cc1ccnc2c1/C(=N/N=C(N)N)CC(c1ccco1)C2` (configuration not stated), under “read-out: pIC50 (converted)”, the IC50 is 110 nM. Same read-out and setting: under `Cc1ccnc2c1/C(=N/N=C(N)N)CC(c1ccsc1)C2` (configuration not stated) stands 30 nM. As to `N=C(N)N/N=C1\CC(c2ccccc2)Oc2ccccc21` (configuration not stated), the IC50 (read-out: IC50) was at most 6400 nM and the IC50 (read-out: pIC50 (converted)) was 3300 nM. For `Cc1ccnc2c1/C(=N/N=C(N)N)CC(c1ccccc1Br)C2` (configuration not stated), in that order: 56 nM and 56 nM. In the case of `Cc1cccc2c1/C(=N/N=C(N)N)CC(c1ccccc1Cl)O2` (configuration not stated), where the note is “read-out: pIC50 (converted)”, the IC50 was 200 nM. Consider `Cc1ccnc2c1/C(=N/N=C(N)N)CC(c1ccc(Cl)cc1)C2` (configuration not stated), for which the IC50 runs as follows: (read-out: IC50) below 50 nM; (read-out: pIC50 (converted)) 550 nM. As to `Cc1ccnc2c1/C(=N/N=C(N)N)CC(c1cccc(Cl)c1Cl)C2` (configuration not stated), the IC50 (read-out: pIC50 (converted)) was 88.9 nM. As to `COc1ccccc1C1C/C(=N\N=C(N)N)c2c(C)ccnc2C1` (configuration not stated), the IC50 reads like this: (read-out: IC50) 100 nM; (read-out: pIC50 (converted)) 100 nM. As to `Cc1ccc(F)cc1C1C/C(=N\N=C(N)N)c2c(C)ccnc2C1` (configuration not stated), the IC50 (read-out: pIC50 (converted)) was 37 nM. As to `Cc1ccnc2c1/C(=N/N=C(N)N)CC(c1cc(Cl)sc1Cl)C2` (configuration not stated), the IC50 (read-out: pIC50 (converted)) is 19 nM. The same measure, in the same setting: under `Cc1ccnc2oc(-c3ccccc3Cl)c/c(=N\NC(=N)N)c12` stands 360 nM.
